The results in this text go back to patent publication US12310975B2, “Modulators of BCL6 proteolysis and associated methods of use” (Arvinas Operations, Inc., priority 2019, dated 2025).

The term IC50 denotes the concentration at which inhibition is half-maximal. Usually Dmax stands for the largest share of the target that was removed. The term EC50 denotes the concentration that produces a half-maximal response.

Test [1] concerns the target T1, BCL6 (Homo sapiens (Human), UniProt P41182). As to the kind of experiment: BCL6 TR-FRET assay (BCL6-Avitag-Biotin / BCoR-Cy5 peptide). The test is classed as binding. The gist of the method:
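TR-FRET displacement assay: biotinylated His-SUMO-BCL6-Avitag (2 nM) pre-incubated 30 min at room temperature with compound (12-point 3-fold titration), then BCoR-Cy5 peptide (100 nM) and Eu-streptavidin (2 nM) added. Buffer: 50 mM HEPES pH 7.5, 125 mM NaCl, 0.01% Triton X, glutathione or DTT, 0.03% BSA. Read after 2 h.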
For orientation: In TR-FRET formats the signal depends on donor and acceptor labels being close together.

Test [2] concerns the target T1, BCL6. As to the kind of experiment: Immunofluorescence high content imaging of BCL6 degradation in T47D cells. It is filed as cell-based. As to conditions: for Dmax: T47D; for DC50: class symbols A-D, read-out: EC50 (nM)*. The gist of the method: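 Read-out is BCL6 immunofluorescence quantified by high-content imaging (10×, 4 fields per well) of T47D breast cancer cells. Cells were exposed for 3 days to degrader in an 11-point, 3-fold serial dilution reaching a final top concentration of 0.1 or 1 μM.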

[3] abbreviates: class symbols A-D, read-out: IC50 (nM)***.

Each structure is given as a SMILES string. Bounds are passed on as bounds.

Turning to `CNC(=O)COc1cc2cc(Nc3nc(N4CCC(OCCOCCOCCOCCCOc5ccc6c(c5)CN(C5CCC(=O)NC5=O)C6=O)CC4)ncc3Cl)ccc2n(C)c1=O` (centres unmarked) [compound 168, 2-((6-((5-chloro-2-(4-(2-(2-(2-(3-((2-(2,6-dioxopiperidin-3-yl)-1-oxoisoindolin-5-yl)oxy)propoxy)ethoxy)ethoxy)ethoxy)piperidin-1-yl)pyrimidin-4-yl)amino)-1-methyl-2-oxo-1,2-dihydroquinolin-3-yl)oxy)-N-methylacetamide], the 50% inhibitory concentration (IC50) at BCL6 [1] (setting [3]) is 10 to 50 nM. The compound also came in with a Dmax on BCL6 [2] (maximum, class symbols A-C) of 50 to 70%. For the same compound, the DC50 on BCL6 [2] is > 100 nM.

Consider `CNC(=O)COc1cc2cc(Nc3nc(N4CCC(CN5CC(N6CCN(c7cccc8c7C(=O)N(C7CCC(=O)NC7=O)C8=O)CC6)C5)CC4)ncc3Cl)ccc2n(C(C)C)c1=O` (centres unmarked) [compound 499, 2-({6-[(5-chloro-2-{4-[(3-{4-[2-(2,6-dioxopiperidin-3-yl)-1,3-dioxo-2,3-dihydro-1H-isoindol-4-yl]piperazin-1-yl}azetidin-1-yl)methyl]piperidin-1-yl}pyrimidin-4-yl)amino]-2-oxo-1-(propan-2-yl)-1,2-dihydroquinolin-3-yl}oxy)-N-methylacetamide], for which, on BCL6 [1] (read-out: IC50), the 50% inhibitory concentration (IC50) is < 10 nM. At BCL6 [2], the maximal degradation (Dmax) is ≥ 70%.

In turn, `CNC(=O)COc1cc2cc(Nc3nc(N4CCN(C)C(COc5cccc6c5C(=O)N(C5CCC(=O)NC5=O)C6=O)C4)ncc3Cl)ccc2n(C)c1=O` (centres unmarked) [compound 231, 2-((6-((5-chloro-2-(3-(((2-(2,6-dioxopiperidin-3-yl)-1,3-dioxoisoindolin-4-yl)oxy)methyl)-4-methylpiperazin-1-yl)pyrimidin-4-yl)amino)-1-methyl-2-oxo-1,2-dihydroquinolin-3-yl)oxy)-N-methylacetamide] had an EC50 on BCL6 [1] of 50 to 100 nM. The IC50 at BCL6 [2] was ≥ 100 nM.

With `CNC(=O)COc1cc2cc(Nc3nc(N4CCOCC4)ncc3Cl)ccc2n(CCOc2ccc3c(c2)C(=O)N(C2CCC(=O)NC2=O)C3=O)c1=O` (centres unmarked) [compound 475, 2-[(6-{[5-chloro-2-(morpholin-4-yl)pyrimidin-4-yl]amino}-1-(2-{[2-(2,6-dioxopiperidin-3-yl)-1,3-dioxo-2,3-dihydro-1H-isoindol-5-yl]oxy}ethyl)-2-oxo-1,2-dihydroquinolin-3-yl)oxy]-N-methylacetamide], at BCL6 [1] (read-out: IC50), the half-inhibitory concentration (IC50) is ≥ 100 nM. On BCL6 [2], the maximal degradation (Dmax) is ≥ 70%.

Take `CNC(=O)COc1cc2cc(Nc3nc(N4CCOC(CN5CCN(c6ccc7c(c6)C(=O)N(C6CCC(=O)NC6=O)C7=O)CC5)C4)ncc3Cl)ccc2n(C)c1=O` (centres unmarked) [compound 272, 2-{[6-({5-chloro-2-[2-({4-[2-(2,6-dioxopiperidin-3-yl)-1,3-dioxo-2,3-dihydro-1H-isoindol-5-yl]piperazin-1-yl}methyl)morpholin-4-yl]pyrimidin-4-yl}amino)-1-methyl-2-oxo-1,2-dihydroquinolin-3-yl]oxy}-N-methylacetamide]: on BCL6 [1], the concentration for a half-maximal effect (EC50) is < 10 nM. At BCL6 [2], this compound came in with a concentration for half-maximal inhibition (IC50) of 10 to 50 nM and a Dmax of 50 to 70%.

With `CNC(=O)COc1cc2cc(Nc3nc(N4CCC(OC5CN(C6CCN(c7cccc8c7C(=O)N(C7CCC(=O)NC7=O)C8=O)CC6)C5)CC4)ncc3Cl)ccc2n(C(C)C)c1=O` (centres unmarked) [compound 525, 2-({6-[(5-chloro-2-{4-[(1-{1-[2-(2,6-dioxopiperidin-3-yl)-1,3-dioxo-2,3-dihydro-1H-isoindol-4-yl]piperidin-4-yl}azetidin-3-yl)oxy]piperidin-1-yl}pyrimidin-4-yl)amino]-2-oxo-1-(propan-2-yl)-1,2-dihydroquinolin-3-yl}oxy)-N-methylacetamide], the IC50 on BCL6 [1] (read-out: IC50) was < 10 nM. The greatest degradation seen (Dmax) on BCL6 [2] is 50 to 70%.

`CNC(=O)[C@@H](C)Oc1cc2cc(Nc3nc(N4CCC(CN5CCN(c6ccc7c(c6)C(=O)N([C@@H]6CCC(=O)NC6=O)C7=O)CC5)CC4)ncc3Cl)ccc2n(C)c1=O` [compound 212, (R)-2-((6-((5-chloro-2-(4-((4-(2-((R)-2,6-dioxopiperidin-3-yl)-1,3-dioxoisoindolin-5-yl)piperazin-1-yl)methyl)piperidin-1-yl)pyrimidin-4-yl)amino)-1-methyl-2-oxo-1,2-dihydroquinolin-3-yl)oxy)-N-methylpropanamide]: the concentration for a half-maximal effect (EC50) on BCL6 [1] was 10 to 50 nM. In addition, the IC50 at BCL6 [2] was ≥ 100 nM.

The compound `CNC(=O)COc1cc2cc(Nc3nc(N4CCOC(COc5cccc6c5C(=O)N(C5CCC(=O)NC5=O)C6=O)C4)ncc3Cl)ccc2n(C)c1=O` (centres unmarked) [compound 226, 2-((6-((5-chloro-2-(2-(((2-(2,6-dioxopiperidin-3-yl)-1,3-dioxoisoindolin-4-yl)oxy)methyl)morpholino)pyrimidin-4-yl)amino)-1-methyl-2-oxo-1,2-dihydroquinolin-3-yl)oxy)-N-methylacetamide] returned an EC50 at BCL6 [1] of 10 to 50 nM. Besides, on BCL6 [2], the half-inhibitory concentration (IC50) fell in the range of 50 to 100 nM and the maximal degradation (Dmax) is < 50%.

As for `CNC(=O)COc1cc2cc(Nc3nc(N4CCC5(CC4)CC(OC4CCN(c6cccc(C(=O)NC7CCC(=O)NC7=O)c6F)CC4)C5)ncc3Cl)ccc2n(C(C)C)c1=O` (centres unmarked) [compound 453, 3-[4-({7-[5-chloro-4-({3-[(methylcarbamoyl)methoxy]-2-oxo-1-(propan-2-yl)-1,2-dihydroquinolin-6-yl}amino)pyrimidin-2-yl]-7-azaspiro[3.5]nonan-2-yl}oxy)piperidin-1-yl]-N-(2,6-dioxopiperidin-3-yl)-2-fluorobenzamide], the concentration for half-maximal inhibition (IC50) on BCL6 [1] (read-out: IC50) was in the range of 10 to 50 nM. Besides, at BCL6 [2], the Dmax was ≥ 70%.

For the compound `CNC(=O)COc1cc2cc(Nc3nc(N4CCN(C5CCN(c6cccc7c6C(=O)N(C6CCC(=O)NC6=O)C7=O)CC5)CC4)ncc3Cl)ccc2n(C)c1=O` (centres unmarked) [compound 220, 2-((6-((5-chloro-2-(4-(1-(2-(2,6-dioxopiperidin-3-yl)-1,3-dioxoisoindolin-4-yl)piperidin-4-yl)piperazin-1-yl)pyrimidin-4-yl)amino)-1-methyl-2-oxo-1,2-dihydroquinolin-3-yl)oxy)-N-methylacetamide], the EC50 at BCL6 [1] is > 100 nM. Also, on BCL6 [2], the IC50 is < 10 nM and the Dmax is 50 to 70%.

In the case of `CNC(=O)COc1cc2cc(Nc3nc(N4CCC(CN5CCC6(CC5)CCN(c5ccc7c(c5)C(=O)N(C5CCC(=O)NC5=O)C7=O)CC6)CC4)ncc3Cl)ccc2n(C(C)C)c1=O` (centres unmarked) [compound 495, 2-{[6-({5-chloro-2-[4-({9-[2-(2,6-dioxopiperidin-3-yl)-1,3-dioxo-2,3-dihydro-1H-isoindol-5-yl]-3,9-diazaspiro[5.5]undecan-3-yl}methyl)piperidin-1-yl]pyrimidin-4-yl}amino)-2-oxo-1-(propan-2-yl)-1,2-dihydroquinolin-3-yl]oxy}-N-methylacetamide], at BCL6 [1] (read-out: IC50), the IC50 is < 10 nM. On BCL6 [2], this compound showed a Dmax of 50 to 70%.

Regarding `CC(=O)COc1cc2cc(Nc3nc(N4CCC(OCCN5CCN(c6ccc7c(c6)CN(C6CCC(=O)NC6=O)C7=O)CC5)CC4)ncc3Cl)ccc2n(C)c1=O` (centres unmarked) [compound 128, 3-(5-(4-(2-((1-(5-chloro-4-((1-methyl-2-oxo-3-(2-oxopropoxy)-1,2-dihydroquinolin-6-yl)amino)pyrimidin-2-yl)piperidin-4-yl)oxy)ethyl)piperazin-1-yl)-1-oxoisoindolin-2-yl)piperidine-2,6-dione], the half-inhibitory concentration (IC50) at BCL6 [1] (setting [3]) is < 10 nM. The Dmax at BCL6 [2] (maximum, class symbols A-C) was < 50%. Further, at BCL6 [2], the DC50 is < 10 nM.

For `Cn1c(=O)n(CCC(C)(C)O)c2cc(Nc3nc(N4CCC(CN5CCN(c6cccc7c6C(=O)N(C6CCC(=O)NC6=O)C7=O)CC5)CC4)ncc3Cl)ccc21` (centres unmarked) [compound 492, 4-(4-{[1-(5-chloro-4-{[3-(3-hydroxy-3-methylbutyl)-1-methyl-2-oxo-2,3-dihydro-1H-1,3-benzodiazol-5-yl]amino}pyrimidin-2-yl)piperidin-4-yl]methyl}piperazin-1-yl)-2-(2,6-dioxopiperidin-3-yl)-2,3-dihydro-1H-isoindole-1,3-dione], on BCL6 [1] (read-out: IC50), the IC50 was 50 to 100 nM. This compound also displayed a Dmax at BCL6 [2] of 50 to 70%.

As for `CNC(=O)COc1cc2cc(Nc3nc(N4CCC(CN5CCC6(CC5)CCN(c5cccc7c5C(=O)N(C5CCC(=O)NC5=O)C7=O)C6)CC4)ncc3Cl)ccc2n(C(C)C)c1=O` (centres unmarked) [compound 512, 2-{[6-({5-chloro-2-[4-({2-[2-(2,6-dioxopiperidin-3-yl)-1,3-dioxo-2,3-dihydro-1H-isoindol-4-yl]-2,8-diazaspiro[4.5]decan-8-yl}methyl)piperidin-1-yl]pyrimidin-4-yl}amino)-2-oxo-1-(propan-2-yl)-1,2-dihydroquinolin-3-yl]oxy}-N-methylacetamide], the IC50 at BCL6 [1] (read-out: IC50) was < 10 nM. On BCL6 [2], the Dmax lay within 50 to 70%.

In the case of `CNC(=O)COc1cc2cc(Nc3nc(N4CCN(C(C)(C)C5CCN(c6c(OC)ccc(C(=O)NC7CCC(=O)NC7=O)c6F)CC5)CC4)ncc3Cl)ccc2n(C)c1=O` (centres unmarked) [compound 481, 3-[4-(2-{4-[5-chloro-4-({1-methyl-3-[(methylcarbamoyl)methoxy]-2-oxo-1,2-dihydroquinolin-6-yl}amino)pyrimidin-2-yl]piperazin-1-yl}propan-2-yl)piperidin-1-yl]-N-(2,6-dioxopiperidin-3-yl)-2-fluoro-4-methoxybenzamide], the 50% inhibitory concentration (IC50) on BCL6 [1] (read-out: IC50) was < 10 nM. Besides, the maximal degradation (Dmax) on BCL6 [2] is ≥ 70%.

For the compound `CC(=O)COc1cc2cc(Nc3nc(N4CCN(CCCN5CCN(c6ccc7c(c6)CN(C6CCC(=O)NC6=O)C7=O)CC5)CC4)ncc3Cl)ccc2n(C)c1=O` (centres unmarked) [compound 137, 3-(5-(4-(3-(4-(5-chloro-4-((1-methyl-2-oxo-3-(2-oxopropoxy)-1,2-dihydroquinolin-6-yl)amino)pyrimidin-2-yl)piperazin-1-yl)propyl)piperazin-1-yl)-1-oxoisoindolin-2-yl)piperidine-2,6-dione], the IC50 on BCL6 [1] (setting [3]) is < 10 nM. Also, on BCL6 [2] (maximum, class symbols A-C), the Dmax was < 50%. The DC50 on BCL6 [2] fell in the range of 10 to 50 nM.
